Results as given in PubChem BioAssay (NCI).
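All cell lines were grown in 96-well plates and treated with compound for 48 hours. The concentration for 50% growth inhibition is given as GI50. TGI is the concentration that stops growth completely.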

Experiments:
Test in all cases: NCI anticancer screen, dose series, 48 h
786-0 renal = system: 786-0 renal
A498 renal = system: A498 renal
A549 NSCLC = system: A549 NSCLC
ACHN renal = system: ACHN renal
CCRF-CEM leukemia = system: CCRF-CEM leukemia
COLO 205 colon = system: COLO 205 colon
DU-145 prostate = system: DU-145 prostate
EKVX NSCLC = system: EKVX NSCLC
HCC-2998 colon = system: HCC-2998 colon
HCT-116 colon = system: HCT-116 colon
HCT-15 colon = system: HCT-15 colon
HL-60(TB) leukemia = system: HL-60(TB) leukemia
HOP-62 NSCLC = system: HOP-62 NSCLC
HOP-92 NSCLC = system: HOP-92 NSCLC
HS 578T breast = system: HS 578T breast
HT29 colon = system: HT29 colon
IGROV1 ovarian = system: IGROV1 ovarian
K-562 leukemia = system: K-562 leukemia
KM12 colon = system: KM12 colon
LOX IMVI melanoma = system: LOX IMVI melanoma
M14 melanoma = system: M14 melanoma
MALME-3M melanoma = system: MALME-3M melanoma
MCF7 breast = system: MCF7 breast
MDA-MB-231 breast = system: MDA-MB-231 breast
MDA-MB-435 = system: MDA-MB-435
MOLT-4 leukemia = system: MOLT-4 leukemia
NCI-H226 lung = system: NCI-H226 lung
NCI-H23 lung = system: NCI-H23 lung
NCI-H460 lung = system: NCI-H460 lung
NCI/ADR-RES ovarian = system: NCI/ADR-RES ovarian
OVCAR-4 ovarian = system: OVCAR-4 ovarian
OVCAR-5 ovarian = system: OVCAR-5 ovarian
OVCAR-8 ovarian = system: OVCAR-8 ovarian
RPMI-8226 leukemia = system: RPMI-8226 leukemia
RXF 393 renal = system: RXF 393 renal
SF-268 CNS = system: SF-268 CNS
SF-295 CNS = system: SF-295 CNS
SF-539 CNS = system: SF-539 CNS
SK-MEL-28 melanoma = system: SK-MEL-28 melanoma
SK-MEL-5 melanoma = system: SK-MEL-5 melanoma
SK-OV-3 ovarian = system: SK-OV-3 ovarian
SN12C renal = system: SN12C renal
SNB-19 CNS = system: SNB-19 CNS
SNB-75 CNS = system: SNB-75 CNS
SR leukemia = system: SR leukemia
SW-620 colon = system: SW-620 colon
T-47D breast = system: T-47D breast
U251 CNS = system: U251 CNS
UACC-257 melanoma = system: UACC-257 melanoma
UACC-62 melanoma = system: UACC-62 melanoma
UO-31 renal = system: UO-31 renal
TK-10 renal = system: TK-10 renal

## Fc1ccc2c3c([nH]c2c1)CCN(Cc1ccccc1)C3
786-0 renal
  TGI: 30 µM
A498 renal
  TGI: 31.7 µM
A549 NSCLC
  TGI: 45.5 µM
ACHN renal
  TGI: 47.3 µM
CCRF-CEM leukemia
  TGI: > 100 µM
COLO 205 colon
  TGI: 39.4 µM
DU-145 prostate
  TGI: 70.9 µM
EKVX NSCLC
  TGI: 48.7 µM
HCC-2998 colon
  TGI: 26 µM
HCT-116 colon
  TGI: 32.9 µM
HCT-15 colon
  TGI: 36.5 µM
HL-60(TB) leukemia
  TGI: 37.6 µM
HOP-62 NSCLC
  TGI: 28.5 µM
HOP-92 NSCLC
  TGI: 18.7 µM
HS 578T breast
  TGI: 30.8 µM
HT29 colon
  TGI: 47.9 µM
IGROV1 ovarian
  TGI: 42.5 µM
K-562 leukemia
  TGI: 41 µM
KM12 colon
  TGI: 29 µM
LOX IMVI melanoma
  TGI: 33.5 µM
M14 melanoma
  TGI: 34.5 µM
MALME-3M melanoma
  TGI: 35 µM
MCF7 breast
  TGI: 31.3 µM
MDA-MB-231 breast
  TGI: 43.8 µM
MDA-MB-435
  TGI: 34.3 µM
MOLT-4 leukemia
  TGI: 42.5 µM
NCI-H226 lung
  TGI: 39.5 µM
NCI-H23 lung
  TGI: 42.4 µM
NCI-H460 lung
  TGI: 33.1 µM
NCI/ADR-RES ovarian
  TGI: 71 µM
OVCAR-4 ovarian
  TGI: 56.1 µM
OVCAR-5 ovarian
  TGI: 47.9 µM
OVCAR-8 ovarian
  TGI: 39.6 µM
RPMI-8226 leukemia
  TGI: 77.2 µM
RXF 393 renal
  TGI: 31 µM
SF-268 CNS
  TGI: 49.2 µM
SF-295 CNS
  TGI: 27.9 µM
SF-539 CNS
  TGI: 39 µM
SK-MEL-28 melanoma
  TGI: 30.3 µM
SK-MEL-5 melanoma
  TGI: 38.8 µM
SK-OV-3 ovarian
  TGI: 39.5 µM
SN12C renal
  TGI: 35.4 µM
SNB-19 CNS
  TGI: 30.8 µM
SNB-75 CNS
  TGI: 32.9 µM
SR leukemia
  TGI: 40.7 µM
SW-620 colon
  TGI: 40 µM
T-47D breast
  TGI: 47.3 µM
U251 CNS
  TGI: 37.1 µM
UACC-257 melanoma
  TGI: 30.6 µM
UACC-62 melanoma
  TGI: 35.2 µM
UO-31 renal
  TGI: 25.6 µM

## CCCCCCCc1n(Cc2ccc3ccccc3c2)c2ccccc2[n+]1Cc1ccc2ccccc2c1
HL-60(TB) leukemia
  GI50: 0.186 µM
  TGI: 0.569 µM
HOP-92 NSCLC
  GI50: 0.163 µM
  TGI: 0.67 µM
HS 578T breast
  GI50: 1.2 µM
  TGI: 3.67 µM
SF-268 CNS
  GI50: 0.345 µM
  TGI: 1.49 µM
SK-OV-3 ovarian
  GI50: 0.87 µM
  TGI: 2.28 µM

## CC(=O)NC(NCCN)(c1ccccc1)c1ccccc1
786-0 renal
  TGI: > 100 µM
A498 renal
  TGI: > 100 µM
A549 NSCLC
  TGI: > 100 µM
ACHN renal
  TGI: > 100 µM
CCRF-CEM leukemia
  TGI: > 100 µM
COLO 205 colon
  TGI: > 100 µM
DU-145 prostate
  TGI: > 100 µM
EKVX NSCLC
  TGI: > 100 µM
HCC-2998 colon
  TGI: > 100 µM
HCT-116 colon
  TGI: > 100 µM
HCT-15 colon
  TGI: > 100 µM
HL-60(TB) leukemia
  TGI: > 100 µM
HOP-62 NSCLC
  TGI: > 100 µM
HOP-92 NSCLC
  TGI: > 100 µM
HS 578T breast
  TGI: > 100 µM
HT29 colon
  TGI: > 100 µM
K-562 leukemia
  TGI: > 100 µM
KM12 colon
  TGI: > 100 µM
LOX IMVI melanoma
  TGI: > 100 µM
M14 melanoma
  TGI: > 100 µM
MALME-3M melanoma
  TGI: > 100 µM
MCF7 breast
  TGI: > 100 µM
MDA-MB-231 breast
  TGI: > 100 µM
MDA-MB-435
  TGI: > 100 µM
MOLT-4 leukemia
  TGI: > 100 µM
NCI-H226 lung
  TGI: > 100 µM
NCI-H23 lung
  TGI: > 100 µM
NCI-H460 lung
  TGI: > 100 µM
NCI/ADR-RES ovarian
  TGI: > 100 µM
OVCAR-4 ovarian
  TGI: > 100 µM
OVCAR-5 ovarian
  TGI: > 100 µM
OVCAR-8 ovarian
  TGI: > 100 µM
RPMI-8226 leukemia
  TGI: > 100 µM
RXF 393 renal
  TGI: > 100 µM
SF-268 CNS
  TGI: > 100 µM
SF-295 CNS
  TGI: > 100 µM
SF-539 CNS
  TGI: > 100 µM
SK-MEL-28 melanoma
  TGI: > 100 µM
SK-MEL-5 melanoma
  TGI: > 100 µM
SK-OV-3 ovarian
  TGI: > 100 µM
SN12C renal
  TGI: > 100 µM
SNB-19 CNS
  TGI: > 100 µM
SNB-75 CNS
  TGI: > 100 µM
SR leukemia
  TGI: > 100 µM
SW-620 colon
  TGI: > 100 µM
TK-10 renal
  TGI: > 100 µM
U251 CNS
  TGI: > 100 µM
UACC-257 melanoma
  TGI: > 100 µM
UO-31 renal
  TGI: > 100 µM
